Earlier results as cited in patent US11877993B1, “Gamma-hydroxybutyrate salts for the treatment of psychological disorders” (priority 2021, dated 2024).

Test system: patients with severe PTSD
Details: MDMA-assisted therapy

In the case of `CNC(C)Cc1ccc2c(c1)OCO2` (stereo not drawn) [MDMA, 3,4-methylenedioxymethamphetamine], the Tolerability (individuals with severe PTSD, even with comorbidities) is listed as “well-tolerated”, the “Attenuation in CAPS-5 score compared with placebo, effect size d” value (severe PTSD, P<0.0001) is listed as 0.91 and the “Decrease of SDS total score, effect size d” value (severe PTSD, P=0.0116) is listed as 0.43.
